Data as given in patent publication US20100137266A1, “TREATMENT OF INSULIN RESISTANCE AND DISORDERS ASSOCIATED THEREWITH” (UNIVERSITETET I OSLO, priority 2006, published 2010).

How the values were obtained:
GLUT1, GLUT3, GLUT4 = assay: mRNA levels of glucose transporters in myotubes by Real-Time RT-PCR; format: cell-based, human; conditions: for GLUT4 mRNA level, increase: 1 μmol/l T0901317 or 10 μmol/l 22-R-HC for 4 days
Source text: FIG. 7. Glucose transport is increased in human myotubes after chronic 22-S-HC treatment. Human myoblasts were allowed to differentiate for 2 days, and then exposed to 1 μmol/1 T0901317, 10 μmol/[…]) or 1, 2, 5 and 10 μmol/1 22-S-HC(S-HC) for 4 days. […] (A) Present means for glucose uptake±SEM (n=4). Basal level for control are 1.20±0.24 nmol/mg cell protein. (B) A representative dose-response curve for glucose uptake after 1, 2, 5 and 10 μmol/l 22-S-HC treatment (n=3). (C) Total RNA were reversely transcribed and analyzed by Real-Time RT-PCR. Results are normalized to levels of 36B4 and present means±SEM (n=4-6). Relative expressions of GLUT1, GLUT3, GLUT4, and hexokinase (HK)II, ^ap<0.05 vs control, ^dp<0.05 vs T0901317. RNA isolation and analysis of gene expression by RT-PCR. Myotubes were washed, trypsinized and pelleted before total RNA was isolated by RNeasy Mini kit (Qiagen Sciences, Oslo, Norway) or Agilent Total RNA Mini kit (Matrix, Oslo, Norway) according to the suppliers total RNA isolation protocol. RNA samples were incubated with RNase-free DNase (Qiagen Sciences) for minimum 15 min in an additional step during the RNA isolation procedure. Total RNA (1 μg/μl) was reversely transcribed with […] primers using a Perkin-Elmer Thermal Cycler 9600 (25° C. for 10 min, 37° C. for 1 h, 99° C. for 5 min) and a TaqMan reverse-transcription reagents kit (Applied Biosystems). Real time PCR was performed using an ABI PRISM® 7000 Detection System. DNA expression was determined by SYBR® Green (Applied Biosystems), and primers [36B4 (Acc#M17885), ACSL1 (Acc#NM-001995), ABCA1 (Acc#AF165281), CD36 (Acc#L06850), FAS (Acc#U26644), GAPDH (Acc#J104038/M33197, GLUT4 (Acc#M20747), LXRα (Acc#U22662), LXR (Acc#U07132), Myogenin (Acc#X17651), MyoD (Acc#BC064493), PPARα (Acc#L02932), PPARδ (Acc#BC002715), PPARγ (Acc#L40904), SCD-1 (Acc#AB032261), SREBP1c (Acc#U00968)], GLUT1, (Acc#03195), GLUT3 ([…]) were designed using Primer Express® (Applied Biosystems). Each target gene was quantified in triplicates and carried out in a 25 μl reaction volume according to the suppliers protocol. […]

human myotubes = assay: Palmitate uptake and lipid distribution: TAG synthesis from [1-14C]palmitic acid in myotubes; format: cell-based
Description: FIG. 3. 22-hydroxycholesterols influence TAG synthesis from palmitic acid differently than T0901317. Human myoblasts were allowed to differentiate for 2 days, and then exposed to vehicle (0.1% DMSO), 1 μM T0901317, or 10 μM 22-S-hydroxycholesterol (22-S-HC) for 4 days. Differentiated myotubes were then incubated with [1-^14C]PA (0.5 μCi/ml, 0.1 mM) for 4 h before triacylglycerol (TAG) levels were determined. Results present means±SEM (n=4; independent muscle cell donors). *p<0.05 vs control, **p<0.05 vs all other treatments.
Human skeletal muscle cell cultures. A cell bank of satellite cells was established from muscle biopsy samples of the M. vastus lateralis of 6 healthy volunteers, age 25.7 years (±1.4), with BMI 21.6 (±1.0) and fasting glucose and insulin within normal range. The biopsies were obtained with informed consent and by approval of the National Committee for Research Ethics, Oslo, Norway. Muscle cell cultures free of fibroblasts were established by the method of Henry et al. (Diabetes, 44, 936-946, 1995), with minor modifications. Briefly, muscle tissue was dissected in Ham's F-10 media at 4° C., dissociated by three successive treatments with 0.05% trypsin/EDTA, and satellite cells were re-suspended in SkGM with 2% FCS and no added insulin. The cells were grown on culture wells coated with ECM gel (Apmis, 109, 726-734, 2001). At about 80% confluence, fusion of myoblasts into multinucleated myotubes was achieved by growth in DMEM with 2% FCS. All cells used were at passage 4 to 6. […]
Palmitate uptake and lipid distribution. […] The radioactivity in the cell fraction (20 μl) was quantified by liquid scintillation (Packard Tri-Carb 1900 TR) (Gaster et al, Diabetes, 53, 542-548, 2004). The protein content of each sample was determined (Bradford, Anal. Biochem., 72, 248-254, 1976), and triacylglycerol (TAG) was extracted (Gaster et al, supra). Briefly, the homogenized cell fraction (220 μl) was extracted, lipids separated by thin-layer chromatography and the radioactivity was quantified by liquid scintillation.

LXRα = biological target: T1, LXRα (Homo sapiens, UniProt Q13133); conditions: Forman et al.; cited from earlier work
T1 construct: host or cells: CV-1 cells (fibroblasts)
T1 sequence (Q13133 1-447): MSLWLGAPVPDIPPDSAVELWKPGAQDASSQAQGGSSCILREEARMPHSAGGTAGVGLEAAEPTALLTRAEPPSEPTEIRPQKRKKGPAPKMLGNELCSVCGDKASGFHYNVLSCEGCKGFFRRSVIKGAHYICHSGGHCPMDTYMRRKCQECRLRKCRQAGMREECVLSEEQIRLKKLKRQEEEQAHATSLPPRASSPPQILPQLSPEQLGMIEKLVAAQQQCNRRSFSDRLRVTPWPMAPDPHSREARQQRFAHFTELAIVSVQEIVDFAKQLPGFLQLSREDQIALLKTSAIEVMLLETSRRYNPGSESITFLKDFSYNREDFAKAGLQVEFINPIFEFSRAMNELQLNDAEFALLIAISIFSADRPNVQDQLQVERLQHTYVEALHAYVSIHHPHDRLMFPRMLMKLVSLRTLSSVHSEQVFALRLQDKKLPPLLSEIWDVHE

Row | SMILES | GLUT4 mRNA level, increase (GLUT1, GLUT3, GLUT4) [fold] | mRNA level of glucose transporter 1 (GLUT1) (GLUT1, GLUT3, GLUT4; treatment for 4 days) | TAG synthesis from labeled palmitate (human myotubes; 1 μM T0901317 for 4 days, [1-14C]PA 4 h, vs control) | regulation of LXRα in fibroblasts (CV-1 cells) (LXRα) | synthesis of TAG compared to T0901317 treatment (human myotubes; 10 μM for 4 days vs 1 μM T0901317) | reduction in incorporation of labeled palmitate into TAG (human myotubes; 10 μM for 4 days, compared to control myotubes) [%]
1 | O=S(=O)(c1ccccc1)N(CC(F)(F)F)c1ccc(C(O)(C(F)(F)F)C(F)(F)F)cc1 [Example T0901317] | 4 | tended to increase | increased | – | – | –
2 | CC(C)CC[C@H](O)[C@@H](C)[C@H]1CC[C@H]2[C@@H]3CC=C4C[C@@H](O)CC[C@]4(C)[C@H]3CC[C@]12C [Example 22-S-HC, 22-S-hydroxycholesterol] | – | – | – | inactive | significantly reduced | 50
3 | CC(C)CC[C@@H](O)[C@@H](C)[C@H]1CC[C@H]2[C@@H]3CC=C4C[C@@H](O)CC[C@]4(C)[C@H]3CC[C@]12C [Example 22-R-HC, 22-R-hydroxycholesterol] | 4 | – | – | positively regulates | – | –
